# “And” between values parts separate entries of the source, which are not always exact repeats. Equal values may be shown once. Read-outs that look alike come from different tables or passages of the source.
# Assays:
# Staphylococcus aureus = assay: MIC ESKAPES panel, Staphylococcus aureus; format: cell-based
# Description: (§1) Minimum inhibitory concentration (MIC) against ESKAPES panel of Gram positive and Gram negative pathogens (Enterococcus faecium, Staphylococcus aureus, Klebsiella pneumoniae, Acinetobacter baumannii, Pseudomonas aeruginosa, Enterobacter cloacae and Salmonella typhimurium [ESKAPES panel]) were determined at the FNDR by the standard broth dilution method [CLSI, M100]. […] Mueller Hinton broth (MHB) medium was used to grow ESKAPES panel strains. The individual cultures were added as 200 μL (inoculum of 3–7 × 10^5 cfu/ml) to the respective assay plates in each well to all columns, except the media control (200 μL of medium). […] The assay plates were incubated at 37 °C, and the results were noted on the 2nd day as turbidometric readout. The clear wells indicated inhibition of growth, while the turbid wells indicated uninhibited growth.
# Mtb # 8673 = assay: microbe, parasite or virus in culture; format: cell-based
# Caco-2 monolayers = assay: in vitro
# Summary of the method: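 Permeability across Caco-2 monolayers was measured in both directions, apical-to-basolateral and basolateral-to-apical, in 10^-6 cm s-1. Efflux ratio = P(B−A)/P(A−B). Intrinsic permeability is the mean of P(A−B) and P(B−A).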
# Msm #607 = assay: Minimum bactericidal concentration (MBC), Msm #607; format: cell-based, Mycobacterium smegmatis; conditions: for MBC: Mycolicibacterium smegmatis
# [1] = biological target: His6-tagged ClpC1-NTD substrate, M. smegmatis ClpC1P1P2 (UniProt A0R574+P9WPC9); assay: biochemical; format: biochemical; conditions: for % Response / ClpC1-NTD peak area: Figure 4a source data, well replicates
# Mycobacterium fortuitum = assay: microbe, parasite or virus in culture; format: cell-based
# Enterobacter cloacae = assay: MIC ESKAPES panel, Enterobacter cloacae; format: cell-based
# Description: as §1
# [2] = test system: Mtb (katG del) ATCC 35822; assay: microbe, parasite or virus in culture; format: cell-based; conditions: Mycobacterium tuberculosis
# Msm 700084 = assay: microbe, parasite or virus in culture; format: cell-based; conditions: Mycolicibacterium smegmatis, 700084; read-out: MIC Msm 700084
# Mtb (moxR) FNDR-M1 = assay: microbe, parasite or virus in culture; format: cell-based
# [3] = test system: replicating Mtb H37Rv cells; assay: Resazurin growth assay, replicating Mtb H37Rv (Supplementary Fig. 2); format: cell-based, Mycobacterium tuberculosis; conditions: three replicate columns
# [4] = format: in vitro ADME, Mice; conditions: clearance in microsomes
# Summary of the method: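 1 µmol/l cpd + 0.5 mg/ml microsomes, Tris-HCl 100 mM pH 7.5 / MgCl2 6.5 mM / NADPH 1 mM, 37 °C. Timed acetonitrile quench, spin, supernatant by HPLC-MS/MS. t1/2 from first-order decay → clearance %Qh, well-stirred model.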
# [5] = test system: Mycobacterium intracellulare; assay: microbe, parasite or virus in culture; format: cell-based
# [6] = test system: Mtb H37Rv in THP-1 macrophages; assay: Intracellular MIC assay in THP-1 macrophages; format: cell-based, Mycobacterium tuberculosis; set-up: Emax: unit not given here
# [7] = biological target: ClpC1 NTD protein (M. tuberculosis) (Mycobacterium tuberculosis, UniProt P9WPC9); assay: biochemical; format: binding; conditions: SPR
# [8] = single well replicates, listed as 8 (UdSBAI-0545)
# [9] = Experiment 2, three replicate columns
# Sequence of His6-tagged ClpC1-NTD substrate, M. smegmatis ClpC1P1P2 (P9WPC9 1-156, looked up, natural form): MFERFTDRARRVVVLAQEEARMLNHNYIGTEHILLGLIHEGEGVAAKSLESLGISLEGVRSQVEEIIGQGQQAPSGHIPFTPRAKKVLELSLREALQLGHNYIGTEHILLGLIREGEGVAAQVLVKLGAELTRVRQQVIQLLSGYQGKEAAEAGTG
# Sequence of His6-tagged ClpC1-NTD substrate, M. smegmatis ClpC1P1P2 (A0R574 whole entry): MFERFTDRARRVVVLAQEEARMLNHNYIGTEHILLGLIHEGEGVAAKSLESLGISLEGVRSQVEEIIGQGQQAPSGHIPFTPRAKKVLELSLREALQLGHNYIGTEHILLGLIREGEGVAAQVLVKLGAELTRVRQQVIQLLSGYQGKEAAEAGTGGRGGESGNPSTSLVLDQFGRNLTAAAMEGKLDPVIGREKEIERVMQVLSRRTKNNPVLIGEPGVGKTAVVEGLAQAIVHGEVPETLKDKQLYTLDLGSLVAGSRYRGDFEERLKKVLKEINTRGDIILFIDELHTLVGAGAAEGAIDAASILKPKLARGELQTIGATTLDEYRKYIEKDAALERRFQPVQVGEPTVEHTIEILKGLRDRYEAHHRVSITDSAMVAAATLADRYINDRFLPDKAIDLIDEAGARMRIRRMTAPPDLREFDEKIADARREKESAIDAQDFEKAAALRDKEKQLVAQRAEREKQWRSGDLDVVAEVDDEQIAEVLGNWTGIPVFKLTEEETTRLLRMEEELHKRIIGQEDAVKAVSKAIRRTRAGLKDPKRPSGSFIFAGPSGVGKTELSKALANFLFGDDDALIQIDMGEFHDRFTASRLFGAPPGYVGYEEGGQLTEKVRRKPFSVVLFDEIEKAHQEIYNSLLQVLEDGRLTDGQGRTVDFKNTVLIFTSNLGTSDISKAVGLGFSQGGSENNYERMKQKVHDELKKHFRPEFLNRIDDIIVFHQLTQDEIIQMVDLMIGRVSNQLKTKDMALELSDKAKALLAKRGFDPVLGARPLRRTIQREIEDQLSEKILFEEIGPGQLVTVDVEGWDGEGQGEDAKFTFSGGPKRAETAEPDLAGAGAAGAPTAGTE
# Sequence of ClpC1 NTD protein (M. tuberculosis) (P9WPC9 1-156, looked up, natural form): as the sequence (P9WPC9 1-156, looked up, natural form) above
compound,measurement,setting,value
COC(c1ccccc1)C1NC(=O)C(C)NC(=O)C(CC(C)CO)N(C)C(=O)C(Cc2cn(Cc3cn(CCOCCOCCOCCOCCn4cc(Cn5cc(CC6NC(=O)C(C(C)C)NC(=O)C(CC(C)C)N(C)C(=O)C(C(C)C)NC(=O)C(C(OC)c7ccccc7)NC(=O)C(C)NC(=O)C(CC(C)CO)N(C)C6=O)c6ccccc65)nn4)nn3)c3ccccc23)NC(=O)C(C(C)C)NC(=O)C(CC(C)C)N(C)C(=O)C(C(C)C)NC1=O (stereo not drawn) [Compound 8],MIC,"Staphylococcus aureus; Gram-Positive Bacteria, replicates 1-3, listed as 8 (UdSBI-0545)",>50 µM
same,MIC,"Staphylococcus aureus; Staphylococcus aureus, Gram positive, n = 3 well replicates",> 50 µM
same,MIC,"Staphylococcus aureus; Staphylococcus aureus, Gram-Positive Bacteria, replicates 1-3",> 109 µg/mL
same,MIC,"Mtb # 8673; Mycobacterium tuberculosis, mean, n = 2 well replicates",< 0.1 µM and < 0.2 µg/mL
same,MIC,"Mtb # 8673; Mycobacterium tuberculosis, single well replicates",< 0.1 µM and < 0.21 µg/mL
same,MIC,Mtb # 8673; [8],<0.1 µM
same,MIC Mtb # 8673,Mtb # 8673; [8],<0.21 µg/mL
same,CACO permeability PEAB,Caco-2 monolayers; apical to basolateral,<0.0000027 cm/sec
same,Caco-2 permeability P (A-B),Caco-2 monolayers; apical to basolateral,< 0.6 10-6 cm s-1
same,CACO permeability PEBA,Caco-2 monolayers; basolateral to apical,<0.000001 cm/sec
same,Caco-2 permeability P (B-A),Caco-2 monolayers; basolateral to apical,< 0.3 10-6 cm s-1
same,Caco-2 Int. Perm,Caco-2 monolayers; mean value of P(A−B) and P(B−A),0.4 10-6 cm s-1
same,colony growth after replating (MBC assay),"Msm #607; Msm #607, up to 50 µM, result in words",growth of colonies could be observed across all tested concentrations
same,MBC,"Msm #607; ATCC607, read-out: MBC (from Set 3) Msm ATCC 607",> 109 µg/mL and > 50 µM
same,MBC,"Msm #607; read-out: MBC Msm #607, individual example",> 50 µM and > 108 µg/mL
same,DC50,"[1]; Msm, Measurement 1-6, read-out: DC50, single measurements",9 µM and 8.5 µM and 6 µM and 8.1 µM and 8.2 µM
same,DC50,"[1]; cell-free degradation of ClpC1-NTD, 90 min, read-out: DC50 M.smegmatis ClpC1P1P2 Mean",8 µM
same,% Response,[1]; conc. 0.4 µM,120.356% and 117.751% and 102.838% and 93.7015% and 104.532% and 103.754% and 118.347% and 117.353% and 124.609%
same,ClpC1-NTD peak area,[1]; conc. 0.4 µM,613438 and 713203 and 1462174 and 1713249 and 1751036 and 1183458 and 1105910 and 1047700 and 547599
same,% Response,[1]; conc. 33.3 µM,25.9293% and 29.5058% and 21.1338% and 16.911% and 37.0492% and 22.8094% and 15.8145% and 16.4069% and 19.2475%
same,ClpC1-NTD peak area,[1]; conc. 33.3 µM,245614 and 155160 and 213594 and 218458 and 306322 and 219308 and 255600 and 176271 and 124945
same,% Response,[1]; conc. 100.0 µM,31.4886% and 23.4001% and 28.8941% and 17.4698% and 14.335% and 19.5877% and 11.6161% and 9.907% and 14.2139%
same,ClpC1-NTD peak area,[1]; conc. 100.0 µM,99143.4 and 153042 and 198962 and 150433 and 187091 and 243688 and 174896 and 223232 and 140724
same,MIC,"Mycobacterium fortuitum; Experiment 1, listed as 8 (UdSBI-0545), read-out: MIC Mycobacterium fortuitum",>50 µM
same,MIC (µg/ml) Mycobacterium fortuitum,Mycobacterium fortuitum; [9],>108.53 µg/mL
same,MIC,"Mycobacterium fortuitum; Experiment 2, three replicate columns, read-out: MIC (µM) Mycobacterium fortuitum",>50 µM
same,MIC,"Mycobacterium fortuitum; Mycolicibacterium fortuitum, Experiment 1, read-out: MIC Mycobacterium fortuitum",> 109 µg/mL
same,MIC,"Mycobacterium fortuitum; Mycolicibacterium fortuitum, Experiment 2, three replicate columns, read-out: MIC (µM) Mycobacterium fortuitum",> 50 µM
same,MIC,"Mycobacterium fortuitum; Mycolicibacterium fortuitum, Experiment 2, three replicate columns, read-out: MIC (µg/ml) Mycobacterium fortuitum",> 109 µg/mL
same,MIC,"Mycobacterium fortuitum; Mycolicibacterium fortuitum, mean ± SD, read-out: MIC Mycobacterium fortuitum",> 50 µM
same,MIC,"Enterobacter cloacae; Enterobacter cloacae, Gram negative, n = 3 well replicates",> 50 µM
same,MIC,"Enterobacter cloacae; Enterobacter cloacae, Gram-Negative Bacteria, replicates 1-3",> 109 µg/mL
same,MIC,"Enterobacter cloacae; Gram-Negative Bacteria, replicates 1-3, listed as 8 (UdSBI-0545)",>50 µM
same,MIC,"[2]; ATCC35822, M. tuberculosis ATCC 35822, single well replicates",0.195 µM
same,MIC,"[2]; ATCC35822, Mtb (katG del) ATCC 35822, mean ± SD, n = 3 well replicates",0.2 µM
same,MIC,Msm 700084,8.3 ± 5.1 µM
same,MIC,"Mtb (moxR) FNDR-M1; M. tuberculosis FNDR-M1, single well replicates",0.195 µM
same,MIC,"Mtb (moxR) FNDR-M1; Mycobacterium tuberculosis, M. tuberculosis FNDR-M1, single well replicates",0.195 µM
same,MIC,"Mtb (moxR) FNDR-M1; Mycobacterium tuberculosis, Mtb (moxR) FNDR-M1, mean ± SD, n = 3 well replicates",0.2 µM
same,"Supplementary Figure 2 dose-response value, replicating H37Rv cells",[3]; Conc. 0.0488281 µM,104.399 and 96.7961 and 102.12
same,"Supplementary Figure 2 dose-response value, replicating H37Rv cells",[3]; Conc. 0.0976562 µM,93.8283 and 89.4675 and 92.0871
same,"Supplementary Figure 2 dose-response value, replicating H37Rv cells",[3]; Conc. 0.195312 µM,90.4271 and 81.4889 and 87.4903
same,"Supplementary Figure 2 dose-response value, replicating H37Rv cells",[3]; Conc. 0.390625 µM,51.3931 and 36.6199 and 50.2013
same,"Supplementary Figure 2 dose-response value, replicating H37Rv cells",[3]; Conc. 0.78125 µM,-3.993 and -4.461 and -3.242
same,"Supplementary Figure 2 dose-response value, replicating H37Rv cells",[3]; Conc. 1.5625 µM,-4.627 and -5.471 and -5.181
same,"Supplementary Figure 2 dose-response value, replicating H37Rv cells",[3]; Conc. 3.125 µM,-6.152 and -6.465 and -5.866
same,"Supplementary Figure 2 dose-response value, replicating H37Rv cells",[3]; Conc. 6.25 µM,-7.417 and -8.76 and -6.686
same,"Supplementary Figure 2 dose-response value, replicating H37Rv cells",[3]; Conc. 25 µM,-8.655 and -4.856 and -8.241
same,"Supplementary Figure 2 dose-response value, replicating H37Rv cells",[3]; Conc. 50 µM,-5.541 and -9.178 and -8.98
same,"Supplementary Figure 2 dose-response value, replicating H37Rv cells",[3]; Conc. 100 µM,-7.259 and -9.127 and -7.68
same,Microsomal Stability Mice,[4],72 %Qh
same,MIC,"[5]; Experiment 1, listed as 8 (UdSBI-0545), read-out: MIC Mycobacterium intracellulare",>50 µM
same,MIC (µg/ml) Mycobacterium intracellulare,[5]; [9],>108.53 µg/mL
same,MIC,"[5]; Experiment 2, three replicate columns, read-out: MIC (µM) Mycobacterium intracellulare",>50 µM
same,MIC,"[5]; Mycobacterium intracellulare, Experiment 1, read-out: MIC Mycobacterium intracellulare",> 109 µg/mL
same,MIC,"[5]; Mycobacterium intracellulare, Experiment 2, three replicate columns, read-out: MIC (µM) Mycobacterium intracellulare",> 50 µM
same,MIC,"[5]; Mycobacterium intracellulare, Experiment 2, three replicate columns, read-out: MIC (µg/ml) Mycobacterium intracellulare",> 109 µg/mL
same,MIC,"[5]; Mycobacterium intracellulare, mean ± SD, read-out: MIC Mycobacterium intracellulare",> 50 µM
same,Emax,[6],1.27
same,intracellular viable mycobacteria,"[6]; 0.19µM, Day 4, well replicates",5.45 log10 cfu/ml
same,intracellular viable mycobacteria,"[6]; 0.19µM, Day 7, well replicates",5.56 log10 cfu/ml
same,intracellular viable mycobacteria,"[6]; 0.781µM, Day 4, well replicates",4.88 log10 cfu/ml
same,intracellular viable mycobacteria,"[6]; 0.781µM, Day 7, well replicates",4.81 log10 cfu/ml
same,intracellular viable mycobacteria,"[6]; 3.125µM, Day 4, well replicates",4.56 log10 cfu/ml
same,intracellular viable mycobacteria,"[6]; 3.125µM, Day 7, well replicates",4.31 log10 cfu/ml and 4.3 log10 cfu/ml
same,intracellular viable mycobacteria,"[6]; 50µM, Day 4, well replicates",4.3 log10 cfu/ml
same,intracellular viable mycobacteria,"[6]; 50µM, Day 7, well replicates",3.92 log10 cfu/ml and 3.9 log10 cfu/ml
same,Kd,"[7]; individual measurements (source data), listed as 8 (UdSBI-0545), read-out: KD ClpC1-NTD",0.325 nM and 0.439 nM and 0.567 nM and 0.381 nM
same,Kd,[7]; read-out: ClpC1-NTD KD Mean ± SD,0.4 ± 0.1 nM
